# Measurements reported in patent publication US20050150764A1 (priority 2001, published 2005).
Structure (SMILES),logP (pH 2),logP (pH 2)/ m.p. [° C.] (logP part)
N#Cc1cnn(C2CCN(C(=O)Nc3ccc(OC(F)(F)F)cc3)N=C2c2cccc(Br)c2)c1 (stereo not drawn) [Example 25],–,4.24/192
N#Cc1cnn(C2CCN(C(=O)Nc3ccc(C(F)(F)F)cc3)N=C2c2cccc(Br)c2)c1 (stereo not drawn) [Example 27],–,4.18/244
FC(F)(F)c1cccc(C2=NNCCC2n2cc(Cl)cn2)c1 (stereo not drawn) [II-2],3.09,–
O=C1OCCC1C(=O)c1cccc(OC(F)(F)F)c1 (stereo not drawn) [VIIa-4],2.59,–
Clc1cccc(C2=NNCCC2n2cc(Cl)cn2)c1 (stereo not drawn) [II-4],2.93,–
N#Cc1cnn(C2CCN(C(=O)Nc3ccc(SC(F)(F)F)cc3)N=C2c2cccc(Br)c2)c1 (stereo not drawn) [Example 24],–,4.64/206
N#Cc1cnn(C2CCN(C(=O)Nc3ccc(OC(F)(F)F)cc3)N=C2c2cccc(Cl)c2)c1 (stereo not drawn) [Example 19],–,4.15/186
O=C1OCCC1C(=O)c1cccc(Br)c1 (stereo not drawn) [Vlla-5],2.22,–
Fc1cccc(C2=NNCCC2n2cc(Cl)cn2)c1 (stereo not drawn) [II-3],2.59,–
FC(F)(F)Oc1cccc(C2=NNCCC2n2cc(Cl)cn2)c1 (stereo not drawn) [II-5],3.32,–
Clc1cnn(C2CCNN=C2c2cccc(Br)c2)c1 (stereo not drawn) [II-6],3.03,–

# Further lines, results first:
logP (pH 2),logP (pH 2)/ m.p. [° C.] (logP part),Structure (SMILES)
3.84,–,O=C(c1cccc(C(F)(F)F)c1)C(CCCl)n1cc(Cl)cn1 (stereo not drawn) [IV-2]
3.47,–,O=C(c1cccc(F)c1)C(Br)CCCl (stereo not drawn) [Example V-2]
3.71,–,O=C(CCCCl)c1cccc(OC(F)(F)F)c1 [VI-2]
3.31,–,O=C(c1cccc(F)c1)C(CCCl)n1cc(Cl)cn1 (stereo not drawn) [IV-3]
–,3.90/228,N#Cc1cnn(C2CCN(C(=O)Nc3ccc(Cl)cc3)N=C2c2cccc(Cl)c2)c1 (stereo not drawn) [Example 18]
3.50,–,O=C(CCCCl)c1cccc(Br)c1 [VI-3]
–,4.03,N#Cc1cnn(C2CCN(C(=O)Nc3ccc(Br)cc3)N=C2c2cccc(Cl)c2)c1 (stereo not drawn) [Example 28]
3.06,–,N#Cc1cnn(C(CCCl)C(=O)c2cccc(Cl)c2)c1 (stereo not drawn) [IV-7]
–,3.62/239,N#Cc1cccc(C2=NN(C(=O)Nc3ccc(OC(F)(F)F)cc3)CCC2n2cc(C#N)cn2)c1 (stereo not drawn) [Example 29]
3.78,–,O=C(c1cccc(Br)c1)C(CCCl)n1cc(Cl)cn1 (stereo not drawn) [IV-6]
4.02,–,O=C(c1cccc(Br)c1)C(Br)CCCl (stereo not drawn) [Example V-4]
2.41,–,N#Cc1cccc(C(=O)C(CCCl)n2cc(C#N)cn2)c1 (stereo not drawn) [IV-9]
3.13,–,N#Cc1cnn(C(CCCl)C(=O)c2cccc(Br)c2)c1 (stereo not drawn) [IV-8]
3.99,–,O=C(c1cccc(OC(F)(F)F)c1)C(CCCl)n1cc(Cl)cn1 (stereo not drawn) [IV-5]
2.49,–,N#Cc1cnn(C2CCNN=C2c2cccc(Br)c2)c1 (stereo not drawn) [II-8]
1.83,–,N#Cc1cccc(C2=NNCCC2n2cc(C#N)cn2)c1 (stereo not drawn) [II-9]
